One data set has as its target Cytochrome P450 2D6 (Homo sapiens, UniProt P10635).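 Also: CYP2D6 member of a cytochrome P450 panel assay.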
The target in another data set is T1, Cytochrome P450 1A2 (Homo sapiens, UniProt P05177).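 Also: PubChem cytochrome P450 panel assay, CYP1A2 panel member.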
T1 sequence (P05177 whole entry): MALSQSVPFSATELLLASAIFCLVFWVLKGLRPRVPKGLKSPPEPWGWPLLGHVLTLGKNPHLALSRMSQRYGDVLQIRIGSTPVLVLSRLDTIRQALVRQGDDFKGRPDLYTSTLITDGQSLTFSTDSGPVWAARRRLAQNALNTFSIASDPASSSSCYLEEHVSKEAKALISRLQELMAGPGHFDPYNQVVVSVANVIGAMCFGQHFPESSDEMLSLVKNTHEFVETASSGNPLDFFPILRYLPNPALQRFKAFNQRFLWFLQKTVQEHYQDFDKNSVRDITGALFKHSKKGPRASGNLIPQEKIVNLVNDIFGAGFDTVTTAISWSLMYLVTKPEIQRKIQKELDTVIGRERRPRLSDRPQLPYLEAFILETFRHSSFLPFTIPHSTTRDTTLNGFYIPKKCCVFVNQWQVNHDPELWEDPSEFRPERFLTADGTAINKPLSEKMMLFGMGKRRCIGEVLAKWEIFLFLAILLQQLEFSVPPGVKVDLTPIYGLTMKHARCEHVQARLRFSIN

Data set [1] in a line: microbe, parasite or virus in culture. It is filed as functional. The conditions noted are these: Mycobacterium tuberculosis.
Another data set has as its target Cytochrome P450 2C19 (Homo sapiens, UniProt P33261). The experiment in a line: Cytochrome panel assay with activity outcomes. Panel member name: p450-cyp2c19 Compounds with AC50 equal or less than 10 uM are considered active. It is filed as functional.
Data set [2] concerns the target T2, Cytochrome P450 2C9 (Homo sapiens, UniProt P11712).
For a further data set, the target named is Cytochrome P450 3A4 (Homo sapiens, UniProt P08684).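 Also: CYP3A4 tested as one member of a cytochrome P450 panel screen.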
Data set [3] has as its target T3, Replicative DNA helicase DnaB (Mycobacterium tuberculosis, UniProt P9WMR3).
T3 sequence (P9WMR3 whole entry): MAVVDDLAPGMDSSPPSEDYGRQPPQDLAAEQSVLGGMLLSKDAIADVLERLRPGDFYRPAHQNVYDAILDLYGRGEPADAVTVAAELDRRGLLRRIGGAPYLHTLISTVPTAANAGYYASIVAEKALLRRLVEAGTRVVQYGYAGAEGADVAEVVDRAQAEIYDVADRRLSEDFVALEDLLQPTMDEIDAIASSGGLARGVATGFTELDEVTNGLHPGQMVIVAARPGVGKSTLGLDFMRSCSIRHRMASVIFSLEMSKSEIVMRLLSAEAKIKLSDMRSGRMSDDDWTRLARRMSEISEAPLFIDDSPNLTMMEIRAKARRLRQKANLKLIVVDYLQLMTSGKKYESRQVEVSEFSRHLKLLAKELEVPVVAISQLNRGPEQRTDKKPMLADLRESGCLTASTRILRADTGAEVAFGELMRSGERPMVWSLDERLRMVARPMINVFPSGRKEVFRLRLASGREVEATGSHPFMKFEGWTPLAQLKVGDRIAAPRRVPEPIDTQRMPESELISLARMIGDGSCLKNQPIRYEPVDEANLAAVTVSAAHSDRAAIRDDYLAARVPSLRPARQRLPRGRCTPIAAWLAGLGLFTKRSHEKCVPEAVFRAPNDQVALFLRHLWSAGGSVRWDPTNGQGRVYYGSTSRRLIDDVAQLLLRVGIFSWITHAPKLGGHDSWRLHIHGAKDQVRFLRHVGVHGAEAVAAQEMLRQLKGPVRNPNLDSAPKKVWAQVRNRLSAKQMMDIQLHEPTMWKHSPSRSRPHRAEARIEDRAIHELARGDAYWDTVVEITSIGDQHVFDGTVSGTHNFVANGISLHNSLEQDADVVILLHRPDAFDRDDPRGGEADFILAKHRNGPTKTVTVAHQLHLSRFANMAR
The data set can be described thus: DnaB intein splicing inhibitors, dose response, biochemical, cell-free fluorescence (AID 449749). Type of data set: functional.

The target of the next data set is T4, Protein RecA (Mycobacterium tuberculosis, UniProt P9WHJ3).
T4 sequence (P9WHJ3 whole entry): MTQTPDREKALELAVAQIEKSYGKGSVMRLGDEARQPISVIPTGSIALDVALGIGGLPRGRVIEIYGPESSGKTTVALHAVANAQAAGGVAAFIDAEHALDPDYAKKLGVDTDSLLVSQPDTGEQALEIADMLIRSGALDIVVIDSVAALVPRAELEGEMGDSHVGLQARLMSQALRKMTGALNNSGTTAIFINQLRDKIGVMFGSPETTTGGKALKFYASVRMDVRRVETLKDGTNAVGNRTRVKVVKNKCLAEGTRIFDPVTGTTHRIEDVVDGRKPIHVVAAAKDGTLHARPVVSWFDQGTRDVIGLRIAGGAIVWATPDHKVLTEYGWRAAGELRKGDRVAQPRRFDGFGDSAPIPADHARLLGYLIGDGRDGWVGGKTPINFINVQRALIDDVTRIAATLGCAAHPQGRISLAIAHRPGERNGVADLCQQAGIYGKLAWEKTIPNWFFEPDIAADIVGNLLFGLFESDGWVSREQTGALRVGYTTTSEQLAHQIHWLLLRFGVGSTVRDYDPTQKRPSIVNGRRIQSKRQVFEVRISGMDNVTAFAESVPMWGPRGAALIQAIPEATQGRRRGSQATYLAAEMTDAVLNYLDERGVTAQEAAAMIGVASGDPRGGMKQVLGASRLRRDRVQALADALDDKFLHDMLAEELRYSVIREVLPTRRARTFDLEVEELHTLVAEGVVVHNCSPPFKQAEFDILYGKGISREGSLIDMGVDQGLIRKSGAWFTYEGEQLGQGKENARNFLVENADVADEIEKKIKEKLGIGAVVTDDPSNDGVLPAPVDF
The data set can be described thus: Fluorescence Cell-Free Homogeneous Dose Retest to Identify Inhibitors of RecA-Intein Splicing Activity. [Related pubchem assays (depositor defined):AID2097, AID2223, AID489010, AID492950]. Type of data set: functional.

The target in data set [4] is T2, Cytochrome P450 2C9. This is another data set of the same source.
In data set [5] the target is T5, Heat shock factor protein 1 (Mus musculus, UniProt P38532).
T5 sequence (P38532 whole entry): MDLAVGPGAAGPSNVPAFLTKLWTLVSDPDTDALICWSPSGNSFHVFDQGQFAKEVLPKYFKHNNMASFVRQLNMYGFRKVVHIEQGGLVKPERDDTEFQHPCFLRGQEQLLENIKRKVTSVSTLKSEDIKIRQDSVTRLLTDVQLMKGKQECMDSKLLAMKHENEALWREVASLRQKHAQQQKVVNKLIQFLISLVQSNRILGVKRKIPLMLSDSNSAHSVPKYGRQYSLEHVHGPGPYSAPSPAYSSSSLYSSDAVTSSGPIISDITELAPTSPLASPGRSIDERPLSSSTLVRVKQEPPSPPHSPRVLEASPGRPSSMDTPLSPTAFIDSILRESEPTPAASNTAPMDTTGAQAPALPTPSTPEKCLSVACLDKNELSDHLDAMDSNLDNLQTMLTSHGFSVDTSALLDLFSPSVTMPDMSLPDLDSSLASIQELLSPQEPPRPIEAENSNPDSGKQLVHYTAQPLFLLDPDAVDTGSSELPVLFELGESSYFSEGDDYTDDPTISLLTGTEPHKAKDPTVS
The data set can be described thus: enhancement of HSF1-driven luciferase signal – cell-based, NIH3T3, luminescence, dose retest, confirmation (AID 435004).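 Also: stress induced by proteasome inhibitor MG132 added 30 min after compound; luciferase reporter driven by HSF1 response element in NIH3T3 cells; actives raise luminescence as potentiators of the MG132 stress response.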 Type of data set: functional.

A short description of data set [6]: P. falciparum Dd2 growth inhibitors, dose response, SYBR Green, cherry-picked samples (AID 1159567). Type of data set: functional, cell-based.

“And” between values parts separate entries of the source, which are not always exact repeats. Equal entries are not always repeated. The source made the active and inactive calls.

Sequence of Cytochrome P450 2D6 (P10635 whole entry): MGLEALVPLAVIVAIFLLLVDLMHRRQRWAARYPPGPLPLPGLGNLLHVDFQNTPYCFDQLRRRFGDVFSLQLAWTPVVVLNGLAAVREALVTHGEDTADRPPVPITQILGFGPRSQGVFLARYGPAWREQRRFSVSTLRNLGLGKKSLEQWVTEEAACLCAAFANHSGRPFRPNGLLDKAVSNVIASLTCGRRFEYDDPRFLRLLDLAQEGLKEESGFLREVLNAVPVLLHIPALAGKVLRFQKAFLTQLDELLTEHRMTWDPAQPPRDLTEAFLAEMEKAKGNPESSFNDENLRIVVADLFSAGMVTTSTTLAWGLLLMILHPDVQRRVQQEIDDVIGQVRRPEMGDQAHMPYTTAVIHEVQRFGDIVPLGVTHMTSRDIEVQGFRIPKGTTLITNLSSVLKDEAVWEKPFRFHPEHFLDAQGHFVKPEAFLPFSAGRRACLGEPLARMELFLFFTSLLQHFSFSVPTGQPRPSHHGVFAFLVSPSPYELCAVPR
T2 sequence (P11712 whole entry): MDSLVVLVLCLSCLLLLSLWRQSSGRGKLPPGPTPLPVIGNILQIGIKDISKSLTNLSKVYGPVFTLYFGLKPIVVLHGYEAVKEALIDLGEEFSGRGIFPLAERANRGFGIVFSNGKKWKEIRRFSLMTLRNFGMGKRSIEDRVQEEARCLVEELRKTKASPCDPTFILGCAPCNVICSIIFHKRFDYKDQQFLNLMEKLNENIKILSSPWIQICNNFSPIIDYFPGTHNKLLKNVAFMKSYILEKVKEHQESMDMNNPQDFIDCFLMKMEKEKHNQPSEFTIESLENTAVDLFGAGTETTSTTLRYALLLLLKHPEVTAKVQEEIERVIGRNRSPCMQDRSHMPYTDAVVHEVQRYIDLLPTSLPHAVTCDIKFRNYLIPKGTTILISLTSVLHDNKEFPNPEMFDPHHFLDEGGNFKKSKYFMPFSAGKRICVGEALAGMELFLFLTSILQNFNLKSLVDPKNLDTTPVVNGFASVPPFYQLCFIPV
Sequence of Cytochrome P450 2C19 (P33261 whole entry): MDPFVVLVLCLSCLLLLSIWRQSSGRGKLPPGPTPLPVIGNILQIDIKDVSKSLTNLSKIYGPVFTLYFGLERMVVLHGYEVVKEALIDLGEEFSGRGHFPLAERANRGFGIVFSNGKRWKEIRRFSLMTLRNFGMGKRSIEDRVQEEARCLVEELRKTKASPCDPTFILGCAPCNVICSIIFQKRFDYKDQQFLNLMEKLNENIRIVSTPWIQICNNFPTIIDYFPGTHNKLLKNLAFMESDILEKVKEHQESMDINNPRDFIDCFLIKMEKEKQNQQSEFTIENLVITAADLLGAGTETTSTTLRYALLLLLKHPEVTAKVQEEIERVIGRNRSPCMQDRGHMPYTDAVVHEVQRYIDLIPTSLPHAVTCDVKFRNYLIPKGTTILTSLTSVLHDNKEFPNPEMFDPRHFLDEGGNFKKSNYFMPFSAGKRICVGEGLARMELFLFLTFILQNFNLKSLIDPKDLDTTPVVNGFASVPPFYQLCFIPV
Sequence of Cytochrome P450 3A4 (P08684 whole entry): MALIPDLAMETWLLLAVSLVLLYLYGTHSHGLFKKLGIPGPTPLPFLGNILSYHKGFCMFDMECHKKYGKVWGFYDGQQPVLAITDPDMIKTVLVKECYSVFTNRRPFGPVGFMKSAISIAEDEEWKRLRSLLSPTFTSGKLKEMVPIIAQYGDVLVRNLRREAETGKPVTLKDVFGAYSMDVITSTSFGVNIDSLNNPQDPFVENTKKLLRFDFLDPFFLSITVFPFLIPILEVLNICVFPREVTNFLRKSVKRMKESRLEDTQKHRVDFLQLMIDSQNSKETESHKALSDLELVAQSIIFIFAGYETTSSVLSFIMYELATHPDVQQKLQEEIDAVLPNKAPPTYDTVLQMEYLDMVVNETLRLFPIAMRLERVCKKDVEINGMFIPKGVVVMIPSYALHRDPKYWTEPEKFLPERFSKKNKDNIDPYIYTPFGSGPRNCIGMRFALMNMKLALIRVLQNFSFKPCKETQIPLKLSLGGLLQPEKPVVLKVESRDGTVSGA

For the compound `Cc1nn(Cc2c(F)c(F)c(F)c(F)c2F)c(C)c1NC(=O)c1cccc(COc2ccccc2Cl)c1`, the AC50 was 0.794 µM (inconclusive) at Cytochrome P450 2D6 and 17.8 µM (inconclusive) at Cytochrome P450 1A2.
For `CCc1c(C)sc2nc3c(C(=O)N4CCOCC4)cc(C(=O)c4cc(F)ccc4O)cn3c(=O)c12`, the CC50 in data set [1] is > 40 µM (active).
The same measure, in the same setting: the figure for `Cc1cc(=O)oc2cc(Oc3ccc([N+](=O)[O-])cc3C(F)(F)F)ccc12` is > 40 µM (active).
Turning to `CCOC(=O)N1CCN(C(=O)c2ccc(OC)c(OC)c2)CC1`, the figures for the AC50 on Cytochrome P450 2C19 (read-out: AC50) and at Cytochrome P450 2C9 [2] were 25.1 µM (inconclusive) and “inconclusive”, respectively.
Regarding `Cc1cnc(CNc2ncnc3ccc(-c4cccc(NS(C)(=O)=O)c4)cc23)cn1`, the concentration at half-maximal activity (AC50) at Cytochrome P450 2D6 was 25.1 µM (inconclusive); at Cytochrome P450 2C9 [2], “inconclusive”.
For `N[C@@H](Cc1ncccn1)C(=O)O`, the AC50 result on Cytochrome P450 2C9 [2] is reported as “inconclusive”.
As to `O=c1c(-c2cc(F)cc(F)c2)nc2cncnc2n1C1CC1`, the AC50 was 7.94 µM (inconclusive) at Cytochrome P450 3A4 and “inconclusive” at Cytochrome P450 2C9 [2].
For the compound `O=C(Nc1ccc(Cl)cc1)N(Cc1nc(O)c2ccccc2n1)Cc1cccs1`, the CC50 in data set [1] is > 40 µM (active).
`O=C(CCN1C(=O)c2cccc3cccc(c23)C1=O)N1CCN(Cc2ccc3c(c2)OCO3)CC1`: on Cytochrome P450 2C9 [2], the AC50 entry is recorded as “inconclusive”.
For the compound `Cc1nc([N+](=O)[O-])c(Sc2nc3ccccc3[nH]2)n1Cc1ccccc1`, the AC50 in data set [3] was 15.3 µM (active). In addition, the EC50 at Protein RecA was 12.3 µM (active).
Regarding `CCCC(=O)Nc1ccc(N2CCN(CC)CC2)c(Cl)c1`, the AC50 is 20 µM (inconclusive) at Cytochrome P450 2D6 and 0.178 µM (inconclusive) at Cytochrome P450 2C9 [4].
In the case of `Cn1c(=O)c(C(=O)NNC(=O)c2cccc(Cl)c2)c(O)c2ccccc21`, the CC50 in data set [1] was > 40 µM (active).
Turning to `Cc1ccccc1-c1nc(C[S+]([O-])CC(=O)NCCCN(C)c2ccccc2)c(C)o1` (stereo not drawn), the AC50 at Cytochrome P450 2D6 was 25.1 µM (inconclusive); at Cytochrome P450 2C9 [2], “inconclusive”.
Regarding `COCc1n[nH]c2c1C(c1ccsc1)C(C#N)=C(N)O2` (stereo not drawn), in data set [3], the AC50 was 21.1 µM (active). The EC50 on Protein RecA was 4.35 µM (active).
Take `Cc1cccc(S(=O)(=O)C(C#N)c2nc3ccccc3nc2N2CCCC2)c1` (stereo not drawn): the EC50 on Protein RecA was > 380 µM (inactive).
In the case of `COc1ccc(C)cc1NC(=O)c1cc2cc3ccc(C)cc3nc2o1`, the AC50 at Cytochrome P450 1A2 was 1.26 µM (inconclusive); on Cytochrome P450 2C9 [2], “inconclusive”.
As for `CC1CCCC(C)N1C(=O)c1ccccc1Nc1ccc(SC(F)F)cc1` (stereo not drawn), the AC50 was 0.631 µM (inconclusive) on Cytochrome P450 2D6 and 17.8 µM (inconclusive) at Cytochrome P450 1A2.
For `O=C(Nc1ccc(N2CCOCC2)cc1)Nc1ccc2nsnc2c1`, the AC50 in [3] was 170 µM (active). Besides, the EC50 on Protein RecA is > 380 µM (inactive).
`O=C1OCCC1Sc1nnc(-c2ccc(O)cc2)o1` (stereo not drawn): the AC50 at Cytochrome P450 3A4 is 7.08 µM (inconclusive); on Cytochrome P450 2C9 [2], “inconclusive”.
For `COc1ccc(N(C(=O)COc2cccc(C)c2)S(=O)(=O)c2ccc(C)cc2)cc1`, in data set [3], the AC50 was 4.29 µM (active). Also, the EC50 on Protein RecA is 4.53 µM (active).
In the case of `CCOC(=O)c1c(NC(C)=O)sc2c1CCC(/C=N/CCCN(CC)CC)=C2Sc1ccccc1`, the EC50 was 16.6 µM (active) in data set [5] and 0.229 µM (active) on Protein RecA. Moreover, the AC50 in data set [3] is 0.239 µM (active).
For `Cc1nn(-c2ccccc2)c(O)c1/C=N/N1CCOCC1`, in data set [3], the AC50 is 39.3 µM (active). Moreover, the EC50 on Protein RecA was 31.7 µM (active).
Taken in the same sequence, the figures for `COC(=O)c1ccc(/N=C2\C(Cl)=C(O)OC2OC(=O)c2ccccc2)cc1` (stereo not drawn) were 10.9 µM (active) and 17.8 µM (active).
For the compound `COc1ccccc1NC(=O)N(C)C[C@H]1OCc2ccccc2-c2c(n(C)c3ccccc23)C(=O)N([C@@H](C)CO)C[C@@H]1C`, the AC50 in data set [6] was 4.25 µM (active).
On the same count and under the same terms, the figure for `CCC(=O)Nc1ccc2c(c1)OC[C@@H](C)N(Cc1ccccc1)C[C@@H](C)[C@H](OC)CN(C)C2=O` is 5.57 µM (active); for `COc1ccc2c3c(n(C)c2c1)[C@H](CO)N(C(=O)C1CC1)CC31CN(C(=O)C2CCOCC2)C1` it is 22.6 µM (active); for `COCC(=O)Nc1ccc2c(c1)OC[C@H](C)N(Cc1ccncc1)C[C@H](C)[C@@H](OC)CN(C)C2=O` it is 25.2 µM (active).
Take `OC(c1ccccc1)(c1ccccc1)C1CCNCC1` [AZACYCLONOL]: the AC50 on Cytochrome P450 2D6 was 15.8 µM (inconclusive).
Same read-out and setting: the figure for `COc1ccc(NC(=O)c2ccc(-c3ccc(-c4noc(C)n4)cc3C)cc2)cc1N1CCN(C)CC1` [GR-127935] is 20 µM (inconclusive) and 39.8 µM (inconclusive).
For `CCCOc1ccc(C(=O)OCCN(CC)CC)cc1N` [PROPARACAINE], the AC50 entry at Cytochrome P450 2C19 is “inconclusive”; on Cytochrome P450 2D6, 6.31 µM (inconclusive).

(Values after ChEMBL document CHEMBL1201862, “PubChem BioAssay data set” (2004).)
